Common to all, as to format: protein assay
Assay [1] concerns the target T1, Alpha glucosidase (Homo sapiens, UniProt O43451+P10253+P14410+Q2M2H8). Nature of the assay: Competitive inhibition of Alpha-glucosidase (unknown origin) by Lineweaver-Burk plot analysis.
The target of assay [2] is T1, Alpha glucosidase. Briefly: Inhibition of Alpha-glucosidase (unknown origin).
Assay [3] addresses T1, Alpha glucosidase. Nature of the assay: Inhibition of Alpha-glucosidase (unknown origin) by Lineweaver-Burk plot analysis. Particulars: dose 4.0 µM.

Usually Ki stands for the equilibrium dissociation constant of an inhibitor or competing ligand from its target. Higher therefore signals weaker binding. By IC50 is commonly meant the point on the concentration scale where inhibition reaches its midpoint.

Some results are limits rather than exact numbers.

In turn, `O=c1ccc2cc(O)c(O)c(-c3c(O)c(O)cc4ccc(=O)oc34)c2o1` returned a Ki at Alpha glucosidase [1] of 3.4 µM. Moreover, the IC50 against Alpha glucosidase [2] worked out at 6.4 µM. `O=c1ccc2c(-c3c(O)c(O)c(-c4c(O)c(O)c(-c5c(O)c(O)cc6oc(=O)ccc56)c5oc(=O)ccc45)c4oc(=O)ccc34)c(O)c(O)cc2o1` showed a Ki at Alpha glucosidase [1] of 0.9 µM. Further, the IC50 on Alpha glucosidase [2] worked out at 2.3 µM. On to `O=c1ccc2c(-c3c(O)c(O)c(-c4c(O)c(O)cc5oc(=O)ccc45)c4oc(=O)ccc34)c(O)c(O)cc2o1`, for which the Ki at Alpha glucosidase [1] worked out at 1.9 µM. The compound further displayed an IC50 against Alpha glucosidase [2] of 4.7 µM. In turn, `O=c1ccc2c(Oc3cc4oc(=O)ccc4c(-c4c(O)c(O)c(-c5c(O)c(O)c(-c6c(O)c(O)cc7oc(=O)ccc67)c6ccc(=O)oc56)c5ccc(=O)oc45)c3O)c(O)c(O)cc2o1` came in with a Ki at Alpha glucosidase [1] of 0.2 µM. For the same compound, the IC50 on Alpha glucosidase [2] was determined as 0.7 µM. In addition, the inhibition result on Alpha glucosidase [3] was “Dose-Dependent Effect”. In turn, `O=c1ccc2c(-c3c(O)c(O)c(-c4c(O)c(O)cc5ccc(=O)oc45)c4oc(=O)ccc34)c(O)c(O)cc2o1` yielded a half-inhibitory concentration (IC50) against Alpha glucosidase [2] of 4.2 µM. `O=c1ccc2c(-c3c(O)c(O)cc4ccc(=O)oc34)c(O)c(O)cc2o1` gave a Ki on Alpha glucosidase [1] of 10.1 µM. For the same compound, the IC50 against Alpha glucosidase [2] is 17.6 µM.

In turn, `O=c1ccc2cc(O)c(O)cc2o1` [ESCULETIN] gave an IC50 against Alpha glucosidase [2] greater than 500 µM.

These data come from ChEMBL document CHEMBL5257102, “Enzymatic transformation of esculetin as a potent class of α-glucosidase inhibitors” (Bioorg Med Chem Lett, 2023).
